Broadly, the IC50 is the concentration needed to halve the response being measured. A high value points to a need for much substance. The term ED50 denotes the midpoint of the dose-response relation.

Where a name gives a salt, the structure may show the parent alone. Read-outs that look alike come from different tables or passages of the source. Where only a bound is given, the exact number is not on record here.

For one experiment, the target named is i-NOS (Homo sapiens, UniProt P35228). Kind of experiment: Comparison of i-NOS inhibition with NIL amide and NIL dimethylamide. It counts as biochemical.
Chain of i-NOS (P35228 whole entry): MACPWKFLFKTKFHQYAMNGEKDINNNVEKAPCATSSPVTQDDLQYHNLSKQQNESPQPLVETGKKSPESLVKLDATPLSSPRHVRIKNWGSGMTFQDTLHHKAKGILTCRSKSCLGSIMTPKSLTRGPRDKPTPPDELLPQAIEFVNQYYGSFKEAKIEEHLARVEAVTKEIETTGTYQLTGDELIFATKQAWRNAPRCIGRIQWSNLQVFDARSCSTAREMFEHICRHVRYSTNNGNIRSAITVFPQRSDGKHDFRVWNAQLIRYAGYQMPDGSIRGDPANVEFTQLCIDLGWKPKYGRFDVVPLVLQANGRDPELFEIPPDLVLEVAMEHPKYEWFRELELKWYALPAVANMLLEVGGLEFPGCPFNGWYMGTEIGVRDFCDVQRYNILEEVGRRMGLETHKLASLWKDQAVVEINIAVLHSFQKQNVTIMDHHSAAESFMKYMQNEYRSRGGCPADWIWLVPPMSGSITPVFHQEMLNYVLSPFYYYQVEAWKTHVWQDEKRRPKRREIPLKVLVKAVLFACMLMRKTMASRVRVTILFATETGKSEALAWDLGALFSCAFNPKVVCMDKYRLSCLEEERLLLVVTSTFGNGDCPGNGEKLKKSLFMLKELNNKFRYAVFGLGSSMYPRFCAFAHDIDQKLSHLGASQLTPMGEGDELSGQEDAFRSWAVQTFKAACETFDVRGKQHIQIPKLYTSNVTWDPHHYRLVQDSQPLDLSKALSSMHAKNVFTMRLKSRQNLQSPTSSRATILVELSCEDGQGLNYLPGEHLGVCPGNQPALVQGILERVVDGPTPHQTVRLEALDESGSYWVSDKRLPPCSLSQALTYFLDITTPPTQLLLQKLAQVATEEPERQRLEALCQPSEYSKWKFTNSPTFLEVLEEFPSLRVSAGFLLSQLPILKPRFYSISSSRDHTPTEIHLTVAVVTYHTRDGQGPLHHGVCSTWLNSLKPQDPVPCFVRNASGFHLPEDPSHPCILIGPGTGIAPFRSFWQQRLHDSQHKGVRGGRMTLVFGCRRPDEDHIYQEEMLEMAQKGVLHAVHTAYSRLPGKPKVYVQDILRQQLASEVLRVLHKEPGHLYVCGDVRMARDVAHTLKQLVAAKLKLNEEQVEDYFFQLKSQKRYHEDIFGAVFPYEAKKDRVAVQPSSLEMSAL
The subject of experiment [1] is nitrite production in human cartilage explants. As to the kind of experiment: Human cartilage explant assay (nitrite production after IL-1β). It counts as cell-based. The note with it: inhibition of nitrite production, IL-1β-stimulated explants. On the procedure:
Human cartilage Explant Assay
Bone pieces are rinsed twice with Dulbecco's Phosphate Buffered Saline (GibcoBRL) and once with Dulbecco's Modified Eagles Medium (GibcoBRL) and placed into a petri dish with phenol red free Minimum Essential Medium (MEM) (GibcoBRL). Cartilage was cut into small explants of approximately 15-45 mg in weight and one or two explants per well are placed into either 96 or 48 well culture plates with 200-500 μL of culture media per well. The culture media was either a custom modification of Minimum Essential Medium(Eagle) with Earle's salts (GibcoBRL) prepared without L-Arginine, without L-Glutamine and without phenol red or a custom modification of serumless Neuman and Tytell (GibcoBRL) medium prepared without L-arginine, without insulin, without ascorbic acid, without L-glutamine and without phenol red. Both are supplemented before use with 100 μM L-Arginine (Sigma), 2 mM L-glutamine, 1×HL-1 supplement (BioWhittaker), […] ascorbic acid (Sigma) and 150 pg/ml recombinant human IL-1[…] (RD Systems) to induce nitric oxide synthase. Compounds are then added in 10 μL aliquots and the explants incubated at 37° C. with 5% CO2 for 18-24 hours. The day old supernatant is then discarded and replaced with fresh culture media containing recombinant human IL-1β and compound and incubated for another 20-24 hours. […] All samples are done in quadruplicate. Unstimulated controls are cultured in media in the absence of recombinant human IL-1β. IC50 values (Table I) are determined from plotting the percent inhibition of nitrite production at six different concentrations of inhibitor.

Another experiment concerns airway inflammation. The note with it: murine model of allergic asthma; by down-regulation of chemokine expression; cited from earlier work.
Experiment [2] relates to LPS-induced increase in plasma nitrite/nitrate levels. As to the kind of experiment: In vivo assay: endotoxin (LPS)-treated rats, plasma nitrite/nitrate. Details: species or system rat. As to conditions: oral administration, plasma nitrite/nitrate 5 hours post-treatment. On the procedure: Plasma nitrite/nitrate levels can be determined 5 hours post-treatment.
The mark [3] stands for this setting: Rattus norvegicus, read-out: ED50.

Regarding “2S-amino-6-[(1-iminoethyl)amino]-N-(1H-tetrazol-5-yl) hexanamide, hydrate, dihydrochloride [Example NN]”, the “selectivity compared with NIL amide or NIL dimethylamide” value on i-NOS is given as “more selective”.

In experiment [1] (Homo sapiens), `CC(=N)NCC(F)=CCC[C@H](N)C(=O)O` (mixture of isomers) [Example B, (2S,5E/Z)-2-amino-6-fluoro-7-[(1-iminoethyl)amino]-5-heptenoic acid, Dihydrochloride] registered an IC50 of 200 nM.

With `CC1CCN=C(N)S1` (stereo not shown) [2-amino 5,6-dihydro 6-methyl 4H-1,3-thiazine], in the experiment with airway inflammation, the “effect on airway inflammation” value is reported as “suppressed airway inflammation”.

`CC(=N)NC/C(F)=C\CC[C@H](N)C(=O)O` [Example A, (2S,5E)-2-amino-6-fluoro-7-[(1-iminoethyl)amino]-5-heptenoic acid, dihydrochloride, monohydrate] registered an IC50 in experiment [1] (Homo sapiens) of 100 nM. Besides, the ED50 in experiment [2] (setting [3]) was less than 0.1 mg/kg; in experiment [2] (dihydrochloride, monohydrate), less than 0.1 mg/kg.

As to `CC(=N)NC/C(F)=C/CC[C@H](N)C(=O)O` [Example D, (2S,5Z)-2-amino-6-fluoro-7-[(1-iminoethyl)amino]-5-heptenoic acid, trihydrochloride, dihydrate], the IC50 in experiment [1] (Homo sapiens) is 2500 nM. Besides, the ED50 in experiment [2] (setting [3]) is greater than 10 mg/kg.

For the compound `CC(=N)NC/C(F)=C\CC[C@H](N)C(=O)Nc1nnn[nH]1` [Example H, (2S,5E)-2-amino-6-fluoro-7-[(1-iminoethyl)amino]-N-(1H-tetrazol-5-yl) 5-heptenamide, Dihydrochloride], the ED50 in experiment [2] (setting [3]) is less than 0.3 mg/kg.

In turn, `CC(=N)NC/C(F)=C\CC[C@](C)(N)C(=O)O` [Example HH, (2S,5E)-2-amino-2-methyl-6-fluoro-7-[(1-iminoethyl)amino]-5-heptenoic acid, Dihydrochloride] came in with an IC50 in experiment [1] (Homo sapiens) of 400 nM. Moreover, the ED50 in experiment [2] (setting [3]) amounted to 0.4 mg/kg.

In turn, `COC[C@](N)(CSCCNC(C)=N)C(=O)O` [Example J, 2-[[[2-[(1-Iminoethyl)amino]ethyl]thio]methyl]-O-methyl-D-serine, Dihydrochloride] returned an IC50 in experiment [1] of 8200 nM. That is a single-digit micromolar value.

Consider `CC(=N)NC/C=C\CC[C@](C)(N)C(=O)O.Cl.Cl` [Example LL, (2S,5Z)-2-amino-2-methyl-7-[(1-iminoethyl)amino]-5-heptenoic acid, Dihydrochloride], for which half-maximal inhibition in experiment [1] (Homo sapiens) (IC50) required 800 nM. In addition, the ED50 in experiment [2] (setting [3]) came out at 0.3 mg/kg.

The compound `N=C1CCCC[C@H](CCCC[C@@H](N)C(=O)O)N1` [Example V, (α,2S)-.α-aminohexahydro-7-imino-1H-azepine-2-hexanoic acid, Trihydrate Hydrochloride] showed an IC50 in experiment [1] (Homo sapiens) of less than 10000 nM. In addition, in experiment [2] (setting [3]), the ED50 was less than 3 mg/kg.

`N=C1CCCC[C@@H](CCCC[C@H](N)C(=O)O)N1` [Example W, (αS,2R)-α-aminohexahydro-7-imino-1 H-azepine-2-hexanoic acid, Trihydrate Hydrochloride] registered an IC50 in experiment [1] (Homo sapiens) greater than 30000 nM. Further, the ED50 in experiment [2] (setting [3]) is greater than 10 mg/kg.

On to `N=C1CCCC[C@H](CCCC[C@H](N)C(=O)O)N1` [Example X, (αS,2S)-α-aminohexahydro-7-imino-1H-azepine-2-hexanoic acid, Trihydrate Hydrochloride], for which, in experiment [1], the IC50 is less than 10000 nM.

Turning to `Cl.N=C1CCCC[C@H](CCCC[C@@H](N)C(=O)O)N1.O.O.O` [Example Y, (αR,2S)-α-aminohexahydro-7-imino-1H-azepine-2-hexanoic acid, Trihydrate Hydrochloride], the ED50 in experiment [2] (setting [3]) was less than 3 mg/kg.

Compound `N=C1CCCC[C@H](CCCC[C@H](N)C(=O)O)N1` [Example Z, (αS,2S)-α-aminohexahydro-7-imino-1H-azepine-2-hexanoic acid, Trihydrate Hydrochloride] showed an IC50 in experiment [1] (Homo sapiens) of less than 10000 nM.

As to `CCSC(=N)N` [S-ethylisothiourea], the “effect on airway inflammation” value with airway inflammation is reported as “suppressed airway inflammation”.

Values taken from patent US20040077639A1, “Methods for the treatment of respiratory diseases and conditions using a selective iNOS inhibitor” (priority 2002, published 2004).
